The structures appear in SMILES notation.

We go through one compound from patent US20170342451A1, “BIOSYNTHESIS OF PACLITAXEL INTERMEDIATE” (Board of Trustees of Michigan State University, priority 2012, published 2017).

In one assay the target is TycA-S563A (Brevibacillus parabrevis, UniProt P09095, S563A). It is filed as biochemical, Brevibacillus brevis. Also on record: The T-domain mutant TycA-S563A was also subcloned into a pSU18 vector and heterologously expressed as a His6-fusion; made in house; host or cells: Escherichia coli BL21(DE3). On the procedure:
(§1) Each (S)-α-phenylalanine, (R)-β-phenylalanine, and (2R,3S)-phenylisoserine substrate (at 1 mM) was separately incubated (31° C.) in 100-μL reactions containing 100 mM HEPES (pH 8.0), ATP (1 mM), MgCl2 (3 mM) and TycA or TycA-S563A (20 μg in 0.1-mL assays) to establish steady-state conditions relative to protein concentration and time. Under steady-state conditions, each (S)-α-phenylalanine, (R)-β-phenylalanine, and (2R,3S)-phenylisoserine substrate, at ten concentration intervals from 5 to 1000 μM (in duplicate), was separately incubated with TycA or TycA-S563A for 1 min at 31° C. The reactions were acid-quenched (pH 3 with 10% formic acid), and the biosynthetic products were quantified by LC-ESI-MRM mass spectrometry (Anderson and Hunter, 2006) on the LC-QP/ESI-MS/MS fitted with a C18 Ascentis Express column (2.5×50 mm, 2.7 μm) at 30° C. An aliquot (5 μL) of each sample was loaded onto the column and the analytes were eluted with the CoA-Elution Gradient (see procedures described above). The effluent from the chromatography column was directed to the mass spectrometer where the first quadrupole mass analyzer (in negative ion mode) was set to select for the molecular ion of a biosynthesized (S)-α-phenylalanine-AMP, (R)-β-phenylalanine-AMP, and (2R,3S)-phenylisoserine-AMP. […]

The target of another assay is T1, TycA (Brevibacillus parabrevis, UniProt P09095).
T1 construct: this wild-type tycA cDNA encoding the A-, T-, and E-domains was subcloned into a pSU18 vector; made in house; host or cells: Escherichia coli BL21(DE3)
T1 sequence (P09095 with tags, fused parts or gaps): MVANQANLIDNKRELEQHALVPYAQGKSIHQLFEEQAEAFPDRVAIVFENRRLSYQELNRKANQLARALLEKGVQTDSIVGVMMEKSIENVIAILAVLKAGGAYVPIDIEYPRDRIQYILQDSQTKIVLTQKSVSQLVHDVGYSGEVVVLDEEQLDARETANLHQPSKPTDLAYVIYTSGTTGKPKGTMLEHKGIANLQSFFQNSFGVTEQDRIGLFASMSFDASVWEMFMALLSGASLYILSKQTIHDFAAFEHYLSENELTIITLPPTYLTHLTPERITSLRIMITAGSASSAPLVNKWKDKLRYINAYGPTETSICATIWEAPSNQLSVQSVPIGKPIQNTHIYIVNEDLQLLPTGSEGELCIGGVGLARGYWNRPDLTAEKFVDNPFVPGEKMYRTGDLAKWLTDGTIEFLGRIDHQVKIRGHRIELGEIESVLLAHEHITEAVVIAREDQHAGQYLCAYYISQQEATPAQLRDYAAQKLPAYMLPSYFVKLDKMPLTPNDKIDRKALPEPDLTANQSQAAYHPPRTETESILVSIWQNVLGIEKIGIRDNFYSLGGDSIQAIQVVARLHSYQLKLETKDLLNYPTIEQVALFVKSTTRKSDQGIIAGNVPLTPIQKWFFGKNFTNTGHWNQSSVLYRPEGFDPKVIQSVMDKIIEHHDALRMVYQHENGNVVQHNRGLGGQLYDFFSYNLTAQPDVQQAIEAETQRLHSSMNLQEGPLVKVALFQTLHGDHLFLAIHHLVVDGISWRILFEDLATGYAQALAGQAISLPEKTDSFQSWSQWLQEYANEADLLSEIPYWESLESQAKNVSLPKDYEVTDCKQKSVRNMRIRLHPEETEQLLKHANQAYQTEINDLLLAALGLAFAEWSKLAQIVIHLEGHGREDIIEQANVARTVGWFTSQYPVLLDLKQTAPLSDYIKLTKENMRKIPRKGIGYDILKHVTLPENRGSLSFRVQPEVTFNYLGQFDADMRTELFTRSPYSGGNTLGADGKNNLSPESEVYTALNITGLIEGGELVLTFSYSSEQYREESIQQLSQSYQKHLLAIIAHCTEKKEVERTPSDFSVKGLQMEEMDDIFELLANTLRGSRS
The assay is classed as biochemical, Brevibacillus brevis. To be noted: ATP at apparent saturation. The method, then: as §1

`N[C@H](CC(=O)O)c1ccccc1` [(R)-β-Phe, (R)-β-phenylalanine]: the “kcat^ATP/KM of TycA-S563A lower than the value for conversion to the CoA thioester” value on TycA-S563A is “about 46 fold”. Further, the “kcat^ATP” value at TycA-S563A (acyl-AMP formation, ATP at apparent saturation) is 0.001 ± 0.00017 s⁻¹; at TycA (acyl-AMP formation) it was 0.00167 ± 0.00017 s⁻¹. Also, the “kcat^ATP/KM of TycA lower than the value for conversion to the CoA thioester” value at TycA is on record as around 15 fold.
